The text below walks through data of patent US6495698B1, “Binder-free compacted forms of 1,3-dihalo-5,5-dimethylhydantoins” (Albemarle Corporation, priority 2000, dated 2002).

Common to all, as to assay type: physicochemical
A short description of data set [1]: Particle size determination with Coulter LS Particle Size Analyzer. Particulars: for Particle Size 10% is greater than / Particle Size 25% is greater than / Particle Size 50% is greater than / Particle Size 75% is greater than / Particle Size 90% is greater than / Particle Size Average: commercially available sample. How it is done:
All particle size determinations referred to in the following Examples were determined by use of a Coulter® LS Particle Size Analyzer. The analyzer was equipped with an LS 230 small volume module and a Fraunhofer PIDS (Polarization Intensity Differential Scattering) detector switched to the “On” position. The determinations were performed at room temperature with a run time of approximately 1 minute per sample. Prior to conducting the particle size determination, and whenever the sample appeared to contain particles adhering to each other, the sample was subjected for 15±1 seconds to sonication using a Sonicor Model SC-100T apparatus to ensure that the particle size measurements were on individual particles of the product, rather than temporarily agglomerated particles.
Samples of commercially-available N,N′-dihalo-5,5-dimethylhydantoins were obtained and subjected to standard test procedures inorderto determine their average particle size using the Coulter® LS Particle Size Analyzer. Table 1 summarizes the results of these average particle size determinations, and also sets forth the data obtained in the same way on arepresentative sample of the 1,3-dibromo-5,5-dimethylhydantoin product of application Ser. No. 09/484,687. Table 2 summarizes the particle size distribution data on the commercially-available 1,3-dihalo-5,5-dimethylhydantoins. In Table 2 the following abbreviations are used: DCDMH is 1,3-dichloro-5,5-dimethylhydantoin; BCDMH is N,N′-bromochloro-5,5-dimethylhydantoin; and DBDMH is 1,3-dibromo-5,5-dimethylhydantoin.

Data set [2] can be described thus: Tableting (pressure compaction) without binder in Sintech press. The note with it: for compaction into tablets without binder (state of tablets released from the die): without any binder. From the text: The commerically available 1,3-dihalo-5,5-dimethylhydantoins referred to in Example 1 were subjected to tableting operations. Five-gram samples of 1,3-dibromo-5,5-dinethylhydantoin and four-gram samples of DCDMH and BCDMH were compacted without binder in a Sintech® press (MTS Systems Corporation, Edenprairie, Minn.) equipped with a punch and die fabricated from Hastelloy® C alloy. Before manually filling the die, the interior surfaces of the die were lightly dusted with micronized polypropylene wax (MICROPRO 400 wax; Micro Powders, Incorporated, Tarrytown, N.Y.). The pressure applied was 5000 psi with no dwell time, i.e., the pressure was terminated automatically immediately upon reaching 5000 psi. The resultant tablets after removal from the die were aged for 6 days at room temperature. Thereupon the tablets were subjected to crush strength testing utilizing a Sintech® 1/S compression apparatus (MTS Systems Corporation, Edenprairie, Minnesota) equipped with Testworks software, which software is installed in the 1/S compression apparatus as supplied by MTS Systems Corporation. The apparatus includes a horizontal circular-shaped load cell interfaced with a computer, a digital micrometer also interfaced with the computer, and a vertical screw-driven piston that is disposed above the load cell and adapted to apply a downward force perpendicular to the load cell. The procedure for measuring crush strength involves measuring the thickness of the tablet with the micrometer to provide a digitized input to the computer. Next the tablet is placed on its edge on the load cell with the piston in contact with the upper edge of the tablet. Then the apparatus is activated whereby the piston commences applying a progressively increasing downward diametral force to the tablet. At the same time, the load cell continuously measures the downward force being applied to the tablet, and the input of such measurements is transmitted to the computer. […]

The nature of data set [3]: Crush strength testing of tablets (Sintech 1/S compression apparatus). The note with it: binder-free tablets compacted at 5000 psi, aged 6 days at room temperature; average of three tests. An excerpt: The commerically available 1,3-dihalo-5,5-dimethylhydantoins referred to in Example 1 were subjected to tableting operations. Five-gram samples of 1,3-dibromo-5,5-dinethylhydantoin and four-gram samples of DCDMH and BCDMH were compacted without binder in a Sintech® press (MTS Systems Corporation, Edenprairie, Minn.) equipped with a punch and die fabricated from Hastelloy® C alloy. Before manually filling the die, the interior surfaces of the die were lightly dusted with micronized polypropylene wax (MICROPRO 400 wax; Micro Powders, Incorporated, Tarrytown, N.Y.). The pressure applied was 5000 psi with no dwell time, i.e., the pressure was terminated automatically immediately upon reaching 5000 psi. The resultant tablets after removal from the die were aged for 6 days at room temperature. Thereupon the tablets were subjected to crush strength testing utilizing a Sintech® 1/S compression apparatus (MTS Systems Corporation, Edenprairie, Minnesota) equipped with Testworks software, which software is installed in the 1/S compression apparatus as supplied by MTS Systems Corporation. […]
As used herein, including the claims, values given for crush strength are as measured using the apparatus and procedure as described in Example 2 above. […]

Where [4] appears, read: material compacted on small scale in manually filled dies.

Consider `CC1(C)C(=O)N(Br)C(=O)N1Br` [DBDMH - Aldrich, 1,3-dibromo-5,5-dimethylhydantoin], for which, in data set [1], the “Particle Size 10% is greater than” value was found to be 359.2 μ, the “Particle Size 25% is greater than” value is listed as 177.6 μ, the “Particle Size 50% is greater than” value was 86.03 μ and the “Particle Size 75% is greater than” value worked out at 47.37 μ. For the same molecule, in data set [1], the “Particle Size 90% is greater than” value came to 27.67 μ and the “Particle Size Average” value is 162.1 μ.

In the case of `CC1(C)C(=O)N(Cl)C(=O)N1Cl` [DCDMH - Aldrich, 1,3-dichloro-5,5-dimethylhydantoin], in data set [1] (Source: Aldrich Chemical Co.), the “Average Particle Size” value is on record as 108.1 microns. Also, in data set [1], the “Particle Size 10% is greater than” value amounted to 195.3 μ, the “Particle Size 25% is greater than” value amounted to 134.4 μ, the “Particle Size 50% is greater than” value was 80.07 μ and the “Particle Size 75% is greater than” value was determined as 45.99 μ. Also, in data set [1], the “Particle Size 90% is greater than” value was found to be 27.19 μ and the “Particle Size Average” value worked out at 108.1 μ. The Average Particle Size result in data set [1] (setting [4]) is recorded as “about 108 microns”. Besides, the “compaction into tablets without binder (state of tablets released from the die)” value in data set [2] was “intact and exhibited no visual surface imperfections”. The same molecule came in with a Crush strength in data set [3] of 183.6 lb/in.

In the case of `CC1(C)C(=O)N(Br)C(=O)N1Br` [DBDMH - Great Lakes, 1,3-dibromo-5,5-dimethylhydantoin], in data set [1], the “Particle Size 10% is greater than” value was 78.76 μ, the “Particle Size 25% is greater than” value came out at 49.76 μ, the “Particle Size 50% is greater than” value is recorded as 34.68 μ and the “Particle Size 75% is greater than” value is 23.25 μ. In data set [1], the “Particle Size 90% is greater than” value is listed as 13.90 μ and the “Particle Size Average” value was determined as 45.23 μ.

Take `CC1(C)C(=O)N(Br)C(=O)N1Br` [DBDMH - Albemarle, 1,3-dibromo-5,5-dimethylhydantoin]: in data set [1], the “Particle Size 10% is greater than” value amounted to 162.7 μ, the “Particle Size 25% is greater than” value is reported as 90.12 μ, the “Particle Size 50% is greater than” value is 39.21 μ and the “Particle Size 75% is greater than” value stood at 26.85 μ. Also, in data set [1], the “Particle Size 90% is greater than” value came out at 17.91 μ and the “Particle Size Average” value came out at 64.59 μ.

Consider `CC1(C)C(=O)N(Br)C(=O)N1Br` [1,3-dibromo-5,5-dimethylhydantoin], for which the “Average Particle Size” value in data set [1] (Source: Albemarle Corporation) is 64.5 microns; in data set [1] (Source: Aldrich Chemical Co.) it was 162.1 microns; in data set [1] (Source: Great Lakes Chemical Corporation), 45.2 microns; in data set [1] (Source: the product of Application No. 09/484,687) it was more than 500 microns. The Compaction entry in data set [2] (without binder, 5000 psi, no dwell time, die dusted with micronized polypropylene wax, listed as 1,3-dibromo-5,5-dimethyhydantoin) is given as “could not be tableted”.

As for `CC1(C)C(=O)N(Cl)C(=O)N1Br` [BCDMH - Aldrich, N,N′-bromochloro-5,5-dimethylhydantoin], the “Average Particle Size” value in data set [1] (Source: Aldrich Chemical Co.) came to 323.8 microns. Also, in data set [1], the “Particle Size 10% is greater than” value is 877.9 μ, the “Particle Size 25% is greater than” value was 409.9 μ, the “Particle Size 50% is greater than” value is 173.9 μ and the “Particle Size 75% is greater than” value came to 65.39 μ. Further, in data set [1], the “Particle Size 90% is greater than” value was found to be 29.35 μ and the “Particle Size Average” value amounted to 323.8 μ. Further, in data set [1] (setting [4]), the Average Particle Size entry is recorded as “about 324 microns”. The “compaction into tablets without binder (state of tablets released from the die)” value in data set [2] was “intact and exhibited no visual surface imperfections”. Further, in data set [3], the Crush strength is 83.9 lb/in.
